# Like-named read-outs stand apart in the source and are kept apart here.
# Assays:
# Reovirus-1 = assay: CPE reduction assay, reovirus-1 in Vero cells; assay type: cell-based; conditions: for EC50: Vero, read-out: Antiviral EC50 value, Reovirus-1
# Para-influenza-3 virus = assay: CPE reduction assay, para-influenza-3 virus in Vero cells; assay type: cell-based; conditions: for EC50: Vero, read-out: Antiviral EC50 value, Para-influenza-3 virus
# [1] = tested on: Respiratory syncytial virus; assay: CPE reduction assay, respiratory syncytial virus in HeLa cells; assay type: cell-based; conditions: for Selectivity index (ratio of MCC to antiviral EC50), Respiratory syncytial virus: value in square brackets
# Sindbis virus = assay: CPE reduction assay, Sindbis virus in Vero cells; assay type: cell-based; conditions: for EC50: Sindbis virus, Vero, read-out: Antiviral EC50 value, Sindbis virus
# Vero cells = conditions: microscopy
# [2] = tested on: HEL: human embryonic lung fibroblast cells; conditions: microscopy
# [3] = tested on: MDCK: Madin-Darby canine kidney cells; conditions: microscopy
# HeLa cells = conditions: microscopy
# Punta Toro virus = assay: CPE reduction assay, Punta Toro virus in Vero cells; assay type: cell-based
# Coxsackie B4 virus [4] = assay: CPE reduction assay, Coxsackie B4 virus in Vero cells; assay type: cell-based
# [5] = tested on: Vesicular stomatitis virus; assay type: cell-based
# Coxsackie B4 virus [6] = assay: CPE reduction assay, Coxsackie B4 virus in HeLa cells; assay type: cell-based
# [7] = CPE inhibition, microscopy, mean ± SEM of three tests
# [8] = Vero cells, CPE inhibition, microscopy, mean ± SEM of three tests
# [9] = Vero cells, value in square brackets
# [10] = Vero cells, CPE inhibition, microscopy
Molecule,EC50 (Reovirus-1),EC50 (Para-influenza-3 virus),MCC (compound concentration causing minimal changes in cell morphology) (Vero cells),MCC (compound concentration causing minimal changes in cell morphology) [2],MCC (compound concentration causing minimal changes in cell morphology) [3],MCC (compound concentration causing minimal changes in cell morphology) (HeLa cells),further results
"CNC(=S)NNC(=O)c1[nH]c2ccc(F)cc2c1-c1ccccc1 [Compound 6a, 1-((5-Fluoro-3-phenyl-1H-indol-2-yl)carbonyl)-4-methyl-3-thiosemicarbazide]",> 100 µg/mL,> 100 µg/mL,,,,,
"CCNC(=S)NNC(=O)c1[nH]c2ccc(F)cc2c1-c1ccccc1 [Compound 6b, 4-Ethyl-1-((5-fluoro-3-phenyl-1H-indol-2-yl)carbonyl)-3-thiosemicarbazide]",> 100 µg/mL,> 100 µg/mL,,,,,"Selectivity index (ratio of MCC to antiviral EC50), Respiratory syncytial virus [1]: ≥ 5; EC50 (Sindbis virus): 3.2 ± 0.8 µg/mL"
"CCCNC(=S)NNC(=O)c1[nH]c2ccc(F)cc2c1-c1ccccc1 [Compound 6c, 1-((5-Fluoro-3-phenyl-1H-indol-2-yl)carbonyl)-4-propyl-3-thiosemicarbazide]",> 100 µg/mL,> 100 µg/mL,100 μg/mL,,,,"Selectivity index (ratio of MCC to antiviral EC50), Respiratory syncytial virus [1]: ≥ 9"
"C=CCNC(=S)NNC(=O)c1[nH]c2ccc(F)cc2c1-c1ccccc1 [Compound 6d, 4-Allyl-1-((5-fluoro-3-phenyl-1H-indol-2-yl)carbonyl)-3-thiosemicarbazide]",> 100 µg/mL,> 100 µg/mL,,,,,"Selectivity index (ratio of MCC to antiviral EC50), Respiratory syncytial virus [1]: ≥ 5"
"CCCCNC(=S)NNC(=O)c1[nH]c2ccc(F)cc2c1-c1ccccc1 [Compound 6e, 4-Butyl-1-((5-fluoro-3-phenyl-1H-indol-2-yl)carbonyl)-3-thiosemicarbazide]",> 100 µg/mL,> 100 µg/mL,,>10 μg/mL,,,
"O=C(NNC(=S)NCc1ccccc1)c1[nH]c2ccc(F)cc2c1-c1ccccc1 [Compound 6f, 4-Benzyl-1-((5-fluoro-3-phenyl-1H-indol-2-yl)carbonyl)-3-thiosemicarbazide]",> 100 µg/mL,> 100 µg/mL,,>10 μg/mL,>10 μg/mL,,
"O=C(NNC(=S)NCCc1ccccc1)c1[nH]c2ccc(F)cc2c1-c1ccccc1 [Compound 6g, 1-((5-Fluoro-3-phenyl-1H-indol-2-yl)carbonyl)-4-phenethyl-3-thiosemicarbazide]",> 100 µg/mL,> 100 µg/mL,,,,,
"CN1C(=O)CS/C1=N\NC(=O)c1[nH]c2ccc(F)cc2c1-c1ccccc1 [Compound 7a, 5-Fluoro-N′-(3-methyl-4-oxo-1,3-thiazolidinon-2-ylidene)-3-phenyl-1H-indol-2-carbohydrazide]",> 100 µg/mL,> 100 µg/mL,,>100 μg/mL,100 μg/mL,100 μg/mL,
"CCN1C(=O)CS/C1=N\NC(=O)c1[nH]c2ccc(F)cc2c1-c1ccccc1 [Compound 7b, N′-(3-Ethyl-4-oxo-1,3-thiazolidinon-2-ylidene)-5-fluoro-3-phenyl-1H-indol-2-carbohydrazide]",> 100 µg/mL,> 100 µg/mL,,>100 μg/mL,100 μg/mL,>100 μg/mL,
"CCCN1C(=O)CS/C1=N\NC(=O)c1[nH]c2ccc(F)cc2c1-c1ccccc1 [Compound 7c, 5-Fluoro-N′-(4-oxo-3-propyl-1,3-thiazolidinon-2-ylidene)-3-phenyl-1H-indol-2-carbohydrazide]",> 100 µg/mL,> 100 µg/mL,>100 μg/mL,>100 μg/mL,>100 μg/mL,>100 μg/mL,
"C=CCN1C(=O)CS/C1=N\NC(=O)c1[nH]c2ccc(F)cc2c1-c1ccccc1 [Compound 7d, N′-[(2Z)-3-Allyl-4-oxo-1,3-thiazolidinon-2-ylidene]-5-fluoro-3-phenyl-1H-indol-2-carbohydrazide]",> 100 µg/mL,> 100 µg/mL,>100 μg/mL,>100 μg/mL,100 μg/mL,>100 μg/mL,
"CCCCN1C(=O)CS/C1=N\NC(=O)c1[nH]c2ccc(F)cc2c1-c1ccccc1 [Compound 7e, N′-(3-Butyl-4-oxo-1,3-thiazolidinon-2-ylidene)-5-fluoro-3-phenyl-1H-indol-2-carbohydrazide]",> 100 µg/mL,> 100 µg/mL,>10 μg/mL,>10 μg/mL,>10 μg/mL,>100 μg/mL,
"O=C(N/N=C1\SCC(=O)N1Cc1ccccc1)c1[nH]c2ccc(F)cc2c1-c1ccccc1 [Compound 7f, N′-(3-Benzyl-4-oxo-1,3-thiazolidinon-2-ylidene)-5-fluoro-3-phenyl-1H-indol-2-carbohydrazide]",> 100 µg/mL,> 100 µg/mL,⩾10 μg/mL,>10 μg/mL,>10 μg/mL,>100 μg/mL,
"O=C(N/N=C1\SCC(=O)N1CCc1ccccc1)c1[nH]c2ccc(F)cc2c1-c1ccccc1 [Compound 7g, 5-Fluoro-N′-(4-oxo-3-phenethyl-1,3-thiazolidinon-2-ylidene)-3-phenyl-1H-indol-2-carbohydrazide]",> 100 µg/mL,> 100 µg/mL,,>10 μg/mL,>10 μg/mL,100 μg/mL,
"NC(=O)c1ncn([C@@H]2O[C@H](CO)[C@@H](O)[C@H]2O)n1 [Ribavirin, ribavirin, reference compound]",> 250 µM,> 250 µM,,,,,"MCC (compound concentration causing minimal changes in cell morphology) (Vero cells; ribavirin data in μM): >250 μM; EC50 (Sindbis virus): 250 µM; EC50 (Punta Toro virus; Punta Toro virus, Vero, read-out: Antiviral EC50 value, Punta Toro virus): 50 µM; MCC (compound concentration causing minimal changes in cell morphology) (HeLa cells; ribavirin data in μM): >250 μM"
dextran sulfate [DS-5000],,,>100 μg/mL,,,>100 μg/mL,"Antiviral EC50 value, Coxsackie B4 virus (Coxsackie B4 virus [4]; [7]): 40 ± 10 µg/mL; Selectivity index (ratio of MCC to antiviral EC50), Coxsackie B4 virus (Coxsackie B4 virus [4]; value in square brackets): > 2.5; Antiviral EC50 value, Respiratory syncytial virus [1, 7]: 5.3 ± 3.3 µg/mL; Selectivity index (ratio of MCC to antiviral EC50), Respiratory syncytial virus [1]: > 19; Antiviral EC50 value, Sindbis virus (Sindbis virus; [8]): 68 ± 32 µg/mL; Selectivity index (ratio of MCC to antiviral EC50), Sindbis virus (Sindbis virus; [9]): > 1.5; Antiviral EC50 value, Reovirus-1 (Reovirus-1; [10]): >100 µg/mL; Antiviral EC50 value, Para-influenza-3 virus (Para-influenza-3 virus; [10]): >100 µg/mL; Antiviral EC50 value, Vesicular stomatitis virus [5]: 8.0 ± 3.1 [>12] μg/mL; Selectivity index (ratio of MCC to antiviral EC50), Vesicular stomatitis virus [5]: 8.0 ± 3.1 [>12]; Antiviral EC50 value, Punta Toro virus (Punta Toro virus; [8]): 20 ± 0 µg/mL; Selectivity index (ratio of MCC to antiviral EC50), Punta Toro virus (Punta Toro virus; [9]): > 5; Antiviral EC50 value, Coxsackie B4 virus (Coxsackie B4 virus [6]; [7]): ≥ 4 µg/mL; Selectivity index (ratio of MCC to antiviral EC50), Coxsackie B4 virus (Coxsackie B4 virus [6]; value in square brackets): ≥ 25"

# Reference: paper PMC7127696 (Bioorganic & Medicinal Chemistry, 2015)
